# Data published in patent US8158789B2, “Arginine derivatives with NP-I antagonistic activity” (Ark Therapeutics Group Ltd., priority 2006, dated 2012).
# Tests used:
# neuropilin-1 (NP-1) = target: T1, neuropilin-1 (NP-1) (Homo sapiens, UniProt O14786); assay: 125I-VEGF-A165 binding; settings: assay not given; 125I-VEGF-A165 binding is the only concentration-response binding method described
# T1 construct: expressed in transfected cells; host or cells: porcine aortic endothelial cells (PAE/NP-1), hygromycin B selection
# Procedure: (§1) Porcine aortic endothelial cells expressing neuropilin-1 (PAE/NP-1) were cultured in Ham's F12 medium containing 10% fetal bovine serum (FBS) and 25 μg/ml hygromycin B. PAE cells expressing KDR (PAE/KDR) were grown in Ham's F12 medium containing 10% FBS and 250 μg/ml […] G418. Human carcinoma cell lines (DU145, A549 and ACHN) were grown in RPMI 1640 medium containing 10% FBS and L-glutamine.
# Confluent cells in 24-well plates were washed twice with phosphate-buffered saline (PBS). At 4° C. various concentrations of peptides or peptidomimetics diluted in binding medium (Dulbecco's modified Eagle's medium, 25 mM HEPES pH 7.3 containing 0.1% BSA) were added, followed by addition of 0.1 nM of ^125I-VEGF-A165 (1200-1800 Ci/mmol, GE Healthcare). After 2 h of incubation at 4° C., the medium was aspirated and washed 4 times with cold PBS. The cells were lysed with 0.25 M NaOH, 0.5% SDS solution, and the bound radioactivity of the lysates was measured in a γ counter. Non-specific binding was determined in the presence of 100-fold excess unlabelled VEGF-A165.
# ACHN cells = assay: Cell migration (chemotaxis transwell); format: cell-based, Human; settings: concentrations from 10-100 μM
# Procedure: as §1
# (§2) Cell migration was measured in chemotaxis 24-transwell plates with collagen 1-coated inserts. The various concentrations of serum in RPMI 1640/0.1% BSA were placed in the bottom wells of the plates, while top inserts incorporating PET (polyethylene terephthalate) track-etched membranes with 8 micron pores (Becton Dickinson Biosciences) were placed over the bottom wells. Cells were trypsinised, washed and resuspended in RPMI 1640/0.1% BSA. 1.5×10^6 cells with or without peptide or peptidomimetic treatment as indicated were loaded into each top inserts, and the chemotaxis trans-well plates were incubated at 37° C. for 4 h. After the incubation, non-migrated cells on the top side of the trans-well membranes were removed, and migrated cells on the under side of the trans-well membranes were stained with the REASTAIN Quick-Diff kit (REAGENA). The stained cells from each well were counted in 4 fields at ×100 magnification using an eyepiece indexed graticule (100 grids).
# A549 cells = assay: Cell migration (chemotaxis transwell); format: cell-based, Human; settings: concentrations from 10-100 μM
# Procedure: as §1, §2
# DU145 cancer cells = assay: Cell-matrix adhesion (Innocyte ECM cell adhesion assay); format: cell-based, Human; settings: concentrations from 10-100 μM
# Procedure: as §1
# Cell adhesion to extracellular matrix proteins (basement membrane protein complex, laminin I, collagen IV, fibronectin or vitronectin) was measured by the Innocyte ECM cell adhesion assay (Calbiochem). Cells were detached with a non-enzyme cell dissociation solution (Sigma), washed and resuspended in RPMI 1640 medium. Cells with or without peptidomimetic treatment were seeded at 3×10^4 cells per matrix-coated well of 96-well plates. After 1.5 h incubation, cells were washed with PBS. The attached cells were labelled with the green fluorescent dye calcein-AM and measured using a fluorescence plate reader at an excitation wavelength of 485 nm and an emission wavelength of 520 nm.
# T1 sequence (O14786 22-923): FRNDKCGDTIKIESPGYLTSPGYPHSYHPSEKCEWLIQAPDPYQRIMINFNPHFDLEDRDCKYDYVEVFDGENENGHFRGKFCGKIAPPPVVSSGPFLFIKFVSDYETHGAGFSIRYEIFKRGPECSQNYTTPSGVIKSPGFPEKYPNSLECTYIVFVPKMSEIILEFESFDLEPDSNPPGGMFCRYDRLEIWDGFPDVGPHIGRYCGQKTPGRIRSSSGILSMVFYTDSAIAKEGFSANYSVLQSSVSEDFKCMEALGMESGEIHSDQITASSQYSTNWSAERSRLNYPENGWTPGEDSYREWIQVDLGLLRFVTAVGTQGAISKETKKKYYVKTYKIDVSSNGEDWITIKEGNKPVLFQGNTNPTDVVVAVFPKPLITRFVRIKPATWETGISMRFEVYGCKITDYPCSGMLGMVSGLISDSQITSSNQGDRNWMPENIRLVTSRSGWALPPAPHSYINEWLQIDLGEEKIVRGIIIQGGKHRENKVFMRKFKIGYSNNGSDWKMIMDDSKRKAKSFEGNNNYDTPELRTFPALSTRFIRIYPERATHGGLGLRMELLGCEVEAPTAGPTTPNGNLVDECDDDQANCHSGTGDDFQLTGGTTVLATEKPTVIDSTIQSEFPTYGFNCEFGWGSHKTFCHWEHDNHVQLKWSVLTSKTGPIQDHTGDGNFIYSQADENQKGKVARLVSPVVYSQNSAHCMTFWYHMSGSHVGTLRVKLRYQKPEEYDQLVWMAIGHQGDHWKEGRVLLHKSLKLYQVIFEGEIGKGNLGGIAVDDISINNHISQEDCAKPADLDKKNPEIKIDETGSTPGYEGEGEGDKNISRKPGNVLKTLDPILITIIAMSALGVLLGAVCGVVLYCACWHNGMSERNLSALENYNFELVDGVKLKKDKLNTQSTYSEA
IC50 (neuropilin-1 (NP-1)) [µM],SMILES,further results
< 20,"Cc1ccc2nsnc2c1S(=O)(=O)Nc1ccsc1C(=O)N[C@@H](CCCNC(=N)N)C(=O)O [EG00264, (S)-2-{[3-(5-Methyl-benzo[1,2,5]thiadiazole-5-methyl-4-sulfonylamino)-thiophene-2-carbonyl]-amino}-5-guanidino-pentanoic acid]",–
< 20,"Cc1noc(C)c1-c1cc2c(c(S(=O)(=O)Nc3ccsc3C(=O)N[C@@H](CCCNC(=N)N)C(=O)O)c1)OCC2 [EG00428, (S)-2-({3-[5-(3,5-Dimethyl-isoxazol-4-yl)-2,3-dihydro-benzofuran-7-sulfonyl-amino]-thiophene-2-carbonyl}-amino)-5-guanidino-pentanoic acid]",–
< 20,"Cc1nn(C)c(Cl)c1CNc1cccc(S(=O)(=O)Nc2ccsc2C(=O)N[C@@H](CCCNC(=N)N)C(=O)O)c1 [EG00280, (S)-2-[(3-{3-[(5-Chloro-1,3-dimethyl-1H-pyrazol-4-ylmethyl)-amino]-benzenesulfonylamino}-thiophene-2-carbonyl)-amino]-5-guanidino-pentanoic acid]",–
< 20,"N=C(N)NCCC[C@H](NC(=O)c1sccc1NS(=O)(=O)c1cc(Br)cc2c1OCC2)C(=O)O [EG00299, (S)-2-{[3-(5-Bromo-2,3-dihydro-benzofuran-7-sulfonylamino)-thiophene-2-carbonyl]-amino}-5-guanidino-pentanoic acid]",–
< 20,"Cc1cc(CNc2cccc(S(=O)(=O)Nc3ccsc3C(=O)N[C@@H](CCCNC(=N)N)C(=O)O)c2)n(C)n1 [EG00316, (S)-2-[(3-{3-[(2,5-Dimethyl-2H-pyrazol-3-ylmethyl)-amino]-benzenesulfonyl-amino}-thiophene-2-carbonyl)-amino]-5-guanidino-pentanoic acid]",–
< 20,"Cn1nc(CNc2cccc(S(=O)(=O)Nc3ccsc3C(=O)N[C@@H](CCCNC(=N)N)C(=O)O)c2)c2ccccc21 [EG00319, (S)-5-Guanidino-2-[(3-{3-[(1-methyl-1H-indazol-3-ylmethyl)-amino]-benzenesulfonylamino}-thiophene-2-carbonyl)-amino]-pentanoic acid]",–
< 20,"N=C(N)NC(=O)CC[C@H](NC(=O)c1sccc1NS(=O)(=O)c1ccccc1[N+](=O)[O-])C(=O)O [EG00285, (S)-5-Guanidino-2-{[3-(2-nitro-benzenesulfonylamino)-thiophene-2-carbonyl]-amino}-5-oxo-pentanoic acid]",–
< 20,"N=C(N)NCCC[C@H](NC(=O)c1sccc1NS(=O)(=O)c1cccc(CCCN)c1)C(=O)O [EG00369, (S)-2-({3-[3-(3-Amino-propyl)-benzenesulfonylamino]-thiophene-2-carbonyl}-amino)-5-guanidino-pentanoic acid]",–
< 20,"Cc1noc(C)c1-c1cccc(S(=O)(=O)Nc2ccsc2C(=O)N[C@@H](CCCNC(=N)N)C(=O)O)c1 [EG00350, (S)-2-({3-[3-(3,5-Dimethyl-isoxazol-4-yl)-benzenesulfonylamino]-thiophene-2-carbonyl}-amino)-5-guanidino-pentanoic acid]",–
< 20,"Cc1nc(S(=O)(=O)Nc2ccsc2C(=O)N[C@@H](CCCNC(=N)N)C(=O)O)cn1C [EG00265, (S)-2-{[3-(1,2-Dimethyl-1H-imidazole-4-sulfonylamino)-thiophene-2-carbonyl]-amino}-5-guanidino-pentanoic acid]",–
< 20,"N=C(N)NCCC[C@H](NC(=O)c1sccc1NS(=O)(=O)c1cc2ccccc2o1)C(=O)O [EG00287, (S)-2-{[3-(Benzofuran-2-sulfonylamino)-thiophene-2-carbonyl]-amino}-5-guanidino-pentanoic acid]",–
< 20,"N=C(N)NCCC[C@H](NC(=O)c1sccc1NS(=O)(=O)c1ccccc1N)C(=O)O [EG00225, (S)-2-{[3-(2-Amino-benzenesulfonylamino)-thiophene-2-carbonyl]-amino}-5-guanidino-pentanoic acid]",–
< 20,"Cc1noc(C)c1CNc1cccc(S(=O)(=O)Nc2ccsc2C(=O)N[C@@H](CCCNC(=N)N)C(=O)O)c1 [EG00317, (S)-2-[(3-{3-[(3,5-Dimethyl-isoxazol-4-ylmethyl)-amino]-benzenesulfonyl-amino}-thiophene-2-carbonyl)-amino]-5-guanidino-pentanoic acid]",–
< 20,"CN1CCOc2cc(-c3cc4c(c(S(=O)(=O)Nc5ccsc5C(=O)N[C@@H](CCCNC(=N)N)C(=O)O)c3)OCC4)cnc21 [EG00475, (S)-5-Guanidino-2-({3-[5-(4-methyl-3,4-dihydro-2H-pyrido[3,2-b][1,4]oxazin-7-yl)-2,3-dihydro-benzofuran-7-sulfonylamino]-thiophene-2-carbonyl}-amino)-pentanoic acid]",–
< 20,"N=C(N)NCCC[C@H](NC(=O)c1sccc1NS(=O)(=O)c1cc2ccccc2s1)C(=O)O [EG00291, (S)-2-{[3-(Benzo[b]thiophene-2-sulfonylamino)-thiophene-2-carbonyl]-amino}-5-guanidino-pentanoic acid]",–
< 20,"N=C(N)NCCC[C@H](NC(=O)c1sccc1NS(=O)(=O)c1cccc2nonc12)C(=O)O [EG00288, (S)-2-{[3-(Benzo[1,2,5]oxadiazole-4-sulfonylamino)-thiophene-2-carbonyl]-amino}-5-guanidino-pentanoic acid]",–
< 20,"N=C(N)NCCC[C@H](NC(=O)c1sccc1NS(=O)(=O)c1cccc(C#CCN)c1)C(=O)O [EG00274, (S)-2-({3-[3-(3-Amino-prop-1-ynyl)-benzenesulfonylamino]-thiophene-2-carbonyl}-amino)-5-guanidino-pentanoic acid]",–
< 20,"CC(=O)Nc1ccc(S(=O)(=O)Nc2ccsc2C(=O)N[C@@H](CCCNC(=N)N)C(=O)O)cc1 [EG00203, (S)-2-{[3-(4-Acetylamino-benzenesulfonylamino)-thiophene-2-carbonyl]-amino}-5-guanidino-pentanoic acid]",–
< 20,"N=C(N)NCCC[C@H](NC(=O)c1sccc1NS(=O)(=O)c1cccc(NCc2ccccn2)c1)C(=O)O [EG00283, (S)-5-Guanidino-2-[(3-{3-[(pyridin-2-ylmethyl)-amino]-benzenesulfonylamino}-thiophene-2-carbonyl)-amino]-pentanoic acid]",–
< 20,"N=C(N)NCCC[C@H](NC(=O)c1sccc1NS(=O)(=O)c1ccc(N)cc1)C(=O)O [EG00144, (S)-2-{[3-(4-Amino-benzenesulfonylamino)-thiophene-2-carbonyl]-amino}-5-guanidino-pentanoic acid]",migration of ACHN cells (ACHN cells): decreased migration; migration of A549 cells (A549 cells): decreased migration; inhibiting the adhesion of DU145 cancer cells to extracellular matrix proteins (DU145 cancer cells): effective
< 20,"N=C(N)NCCC[C@H](NC(=O)c1sccc1NS(=O)(=O)c1cccc(CCc2cccnc2)c1)C(=O)O [EG00323, (S)-5-Guanidino-2-({3-[3-(2-pyridin-3-yl-ethyl)-benzenesulfonylamino]-thiophene-2-carbonyl}-amino)-pentanoic acid]",–
< 20,"Cc1nc(CNc2cccc(S(=O)(=O)Nc3ccsc3C(=O)N[C@@H](CCCNC(=N)N)C(=O)O)c2)c(C)o1 [EG00332, (S)-2-[(3-{3-[(2,5-Dimethyl-oxazol-4-ylmethyl)-amino]-benzenesulfonylamino}-thiophene-2-carbonyl)-amino]-5-guanidino-pentanoic acid]",–
< 20,"N=C(N)NCCC[C@H](NC(=O)c1sccc1NS(=O)(=O)c1cccc(N)c1)C(=O)O [EG00174, (S)-2-{[3-(3-Amino-benzenesulfonylamino)-thiophene-2-carbonyl]-amino}-5-guanidino-pentanoic acid]",–
< 20,"N=C(N)NCCC[C@H](NC(=O)c1sccc1NS(=O)(=O)c1ccccc1[N+](=O)[O-])C(=O)O [EG00224, (S)-5-Guanidino-2-{[3-(2-nitro-benzenesulfonylamino)-thiophene-2-carbonyl]-amino}-pentanoic acid]",–
< 20,"Cc1nn(-c2ccccc2)c(Cl)c1CNc1cccc(S(=O)(=O)Nc2ccsc2C(=O)N[C@@H](CCCNC(=N)N)C(=O)O)c1 [EG00318, (S)-2-[(3-{3-[(5-Chloro-3-methyl-1-phenyl-1H-pyrazol-4-ylmethyl)-amino]-benzenesulfonylamino]-thiophene-2-carbonyl)-amino]-5-guanidino-pentanoic acid]",–
